Measurements: patent US20220057378A1, “MICROBIAL MICROFLUIDIC BIOSENSOR” (priority 2015, published 2022)
Values joined by “and” are separate entries in the source; they are usually repeats but may differ in a detail not shown here. Equal entries are not always repeated.

Legend:
Format in all cases: cell-based
[1] = system: As7 GFP construct; test: arsenic detection with the GFP construct in a microfluidic device
Description: For comparison, the arsenic concentration used for testing the GFP construct in a microfluidic device was 130 nM, or 0.13 μM. Thus, replacing GFP with Lux promises to greatly increase the sensitivity of the biosensor.
The arsenic sensor construct As7 was modified to replace the gfp gene with the luxCDABE operon, and relative induction (fluorescence or luminescence) of the two constructs was tested side-by-side using a Tecan Infinite M200 Pro plate reader (see FIG. 38). […] In contrast, the GFP construct was sensitive to arsenic only above a concentration of 26 nM. For comparison, we were able to detect an arsenic concentration of 130 nM using the GFP construct in a microfluidic device. Thus, replacing GFP with Lux promises to greatly increase the sensitivity of the biosensor.

[2] = system: E. coli MG1655 containing pRS18; test: on-chip step-induction of arsenic-sensing plasmid pRS18 (GFP); settings: pRS18 in E. coli MG1655, M9 + 0.4% glucose
Excerpt: Induction of pRS18, an arsenic-sensing plasmid, was first tested in the microfluidic device. A recombinant strain of E. coli MG1655 containing pRS18 was vacuum loaded into the microfluidic device, grown to confluence, and step-induced with sodium ortho-arsenite (Na3AsO3) in M9 minimal medium supplemented with 0.4% glucose. Images were collected using a Nikon Ti microscope with 4× objective magnification. Step induction was executed using the gravity-driven “Dial-AWave” automated flow control system to mix two medium sources in a defined ratio. The cells were sequentially exposed to arsenic concentrations of 0 μM, 0.1 μM, 0.5 μM, and 1 μM in 6-h windows, allowing time for the cells to respond to each concentration increase. […] We believe that the rise in GFP expression prior to the induction step is due to a small leak of inducer into the medium stream. Average fluorescence within the trapping regions of the images as well as arsenic concentration is plotted over time in FIG. 47C.

[3] = system: E. coli LABEC01/Cr5; test: on-chip time-lapse induction of promoter construct (GFP, gill chip)
Description: (§2) For on-chip induction experiments, strains were loaded into the device and grown in M9 minimal medium with 0.4% glucose and 50 μg/ml spectinomycin (for plasmid maintenance) for 2 days in the absence of toxin. Cells were imaged under 4× brightfield and GFP fluorescence filters on an Olympus IX-81 microscope every 2 min for 6 h under these non-inducing conditions to generate a fluorescence baseline. The toxin was then introduced to induce GFP expression and the cells were imaged every 2 min for 6 h.
(§3) To determine the response to toxin induction, the raw fluorescence images before and after induction were compared. The image stacks were analyzed using a custom ImageJ script to measure the average GFP signal over time for each cell trap. Any linear trend in the uninduced fluorescence data due to cell growth was subtracted from the data. In this manner, the dynamic signal-to-noise ratio (SNR) was calculated as: (current fluorescence−mean uninduced fluorescence)/(standard deviation of uninduced fluorescence).
(§4) This microfluidic platform was then used to measure the response of several toxin responsive promoter constructs identified from the literature and synthesized by Transcriptic. […] Note that SNR values greater than 2 indicate a significant response.

[4] = system: E. coli MG1655/Zn6; test: 18-strain chip induction; settings: Zn6, Pb7, Pb8 in descending magnitude
Excerpt: (§1) In an embodiment herein, the toxin response data across 18 unique sensing strains were also collected using a new chip design that houses 16 E. coli strains and 2 B. subtilis strains. The B. subtilis NCIB 3610/Amm3 construct is a “lights-off” sensor, meaning that GFP production drops when ammonium is introduced, following a slight increase due to faster growth on this preferred nitrogen source. […] By combining these sensor responses, we can identify cobalt by the unique response of Pb7 alone and lead by the unique combination of Zn6, Pb7, and Pb8 responses.

[5] = system: E. coli MG1655/Pb8; test: 18-strain chip induction; settings: Zn6, Pb7, Pb8 in descending magnitude
Excerpt: as §1

[6] = system: E. coli MG1655/Pb7; test: 18-strain chip induction
Excerpt: as §1

[7] = system: E. coli LABEC01/Pb2; test: on-chip time-lapse induction of promoter construct (GFP, gill chip)
Description: as §2, §3, §4

## [As] [Arsenic]
[1]
  arsenic concentration detected, GFP construct in microfluidic device: 130 nM
[2]
  arsenic concentration detected on-chip (GFP): 0.1 µM and 0.13 µM

## [Cr+6] [Chromium(VI)]
[3]; 5 μM chromium(VI), 6 h induction, SNR > 2 = significant response
  SNR after 6 h: 5
[3]; chrB/pchrB from O. tritici transposon, native RBS
  Concentration Sensed in Microfluidic Device: 5 µM

## [Pb] [Lead]
[4]
  GFP response of strain Zn6: respond sensitively
[5]
  GFP response of strain Pb8: respond sensitively
[6]
  GFP response of strain Pb7: respond sensitively
[7]; 7 μM lead, 6 h induction, SNR > 2 = significant response
  SNR after 6 h: 18
[7]; pbrR/ppbrR from C. metallidurans plasmid, synthetic RBS
  Concentration Sensed in Microfluidic Device: 7 µM
